Assays:
[1] = SOD activity (cytochrome C method); assay type: biochemical
Excerpt: FIGS. 1A-1H show the structures of certain generic and specific definitions of compounds suitable for use in the present invention. With reference to FIG. 1C, mimetics of the invention can be of Formula I or Formula II, or dimeric forms thereof, an example of a dimeric form being shown in FIG. 1D. With reference to FIG. 1H, the SOD activities of certain of the depicted compounds are shown in Table 1 (as measured by the cytochrome C method): […]

[2] = system: radiation-induced lung injury; assay: Radiation-induced lung injury in rats (28 Gy right hemithoracic irradiation); assay type: in vivo
Experimental: AEOL 10113 was tested (6 mg/kg/day for 5 days beginning on the day of irradiation) in a rat model of radiation-induced lung injury as assessed by breathing rate (animals with lung injury have a more rapid respiration rate), and chemical and microscopic measures of fibrosis. During the follow-up period of 6 months, 4 of the 9 rats receiving radiation only developed severe respiratory distress and were euthanized. In the group of rats treated with radiation plus AEOL 10113, only 1 of the 9 rats developed respiratory distress and was euthanized. Breathing rate data were analyzed on a last observation carried forward (LOCF) data set, in which the last observation for rats euthanized due to respiratory distress was imputed to subsequent weeks. There was a significant (log ranks p=0.0011) delay (approximately 3.4 weeks) in the development of radiation-induced lung injury (assessed by an increase in breathing rate) in animals treated with AEOL 10113 (FIG. 12).
Six months after radiation all remaining animals were euthanized. At that time, the right upper lung lobe was removed and processed to quantify the extent of lung fibrosis based on hydroxyproline content.
Radiation-induced lung fibrosis was also assessed using histopathology (FIG. 13B). Lungs were fixed in 10% neutral buffered formalin. Five-micron thick sections were stained with hematoxylin and eosin or Masson trichrome and examined microscopically. Slides were systematically scanned in a microscope using a ×10 objective. Each successive field was individually assessed for severity of interstitial fibrosis and allotted a score of between 0 and 8.
Studies were performed to evaluate changes in body weight after irradiation and to assess the radioprotective effect of MnTE-2-PyP on radiation-induced pulmonary injury in rats. The body weight and lung function of the animals were measured every two weeks after irradiation in three groups of animals: control, radiation alone and radiation+MnTE-2-PyP. A single dose of 28 Gy was delivered to right hemithorax and 6 mg/kg of MnTE-2-PyP was given daily i.p. for 5 days after irradiation. Unrestrained rats were placed in a 1500 ml whole body plethysmograph tube connected to a pressure transducer for a breathing rate measurements. […] The mean of five measurements was performed on each animal.

A549 cells = assay: 3H-thymidine incorporation (DNA synthesis) in A549 cells; assay type: cell-based, human; conditions: 4 μM, 24 hours
Experimental: FIG. 16. A549 cells were grown 50% confluence in 24 well plates in complete media. Cells were then incubated for 24 hours with the above concentrations of drug and ^3H-thymidine (to assess DNA synthesis). After three washes in PBS, the cells were homogenized and the radioactivity counted. At 4 μM MnTE-2-PyP, there was a 50% inhibition of incorporation of ^3H-thymidine.

SMILES: CC[n+]1ccccc1-c1c2nc(c(-c3cccc[n+]3CC)c3ccc([n-]3)c(-c3cccc[n+]3CC)c3nc(c(-c4cccc[n+]4CC)c4ccc1[n-]4)C=C3)C=C2.[Mn+3] [Compound 10113, manganese(III)tetrakis(N-ethylpyridinium-2-yl)porphyrin]
- SOD activity [1]: 10,648 U/mg
- delay in the development of radiation-induced lung injury (increase in breathing rate) ([2]; 6 mg/kg/day for 5 days, LOCF, log ranks p=0.0011): approximately 3.4 weeks
- reduction of the magnitude of the increase in breathing rate at endpoint ([2]; 6 mg/kg/day for 5 days, average): 34%
- hydroxyproline content of upper right lobe after radiation ([2]; 6 months after 28 Gy, wet and dry lung): significant reduction (p<0.05)
- recovery of body weight loss after hemithoracic irradiation ([2]; 28 Gy, 6 mg/kg daily i.p. for 5 days): significantly better recovery of the body weight loss
- hydroxyproline content of right upper lobe vs control ([2]; AEOL 10113 without radiation): no differences
- radiation-induced lung fibrosis by histopathology ([2]; fibrosis score 0-8, FIG. 13B): reduced radiation-induced lung fibrosis
- rats that developed respiratory distress and were euthanized ([2]; of 9 rats, radiation plus AEOL 10113, 6 months, radiation only 4 of 9): 1
- inhibition of incorporation of 3H-thymidine (A549 cells): 50%
